Measurements: US20240287138A1, “CYCLIC PEPTIDES FOR INHIBITING TNF RECEPTOR 1 ACTIVITY” (Merck Sharp & Dohme LLC, priority 2023, published 2024)
Numbered stars: 1 amine (or outer) side, 2 acyl side, 3 side chain; on linkers, the order of the positions; unused ones are H or OH. Square brackets hold non-standard residues; d marks the D form. Peptide text beside a SMILES is read from it. * marks the point of attachment. Trp(7-aza,1-CH2COOH) = N[C@@H](Cc1cn(CC(=O)O)c2ncccc12)C(=O)O; Trp(βS-Me,7-OMe) = COc1cccc2c([C@H](C)[C@H](N)C(=O)O)c[nH]c12; X49 = C[N+](C)(C)CC(=O)N[C@H]1C[C@H](C(=O)[*:2])N([*:1])C1; Phe(4-SO2NH2) = N[C@@H](Cc1ccc(S(N)(=O)=O)cc1)C(=O)O; Phe(2-F,4-COOH) = N[C@@H](Cc1ccc(C(=O)O)cc1F)C(=O)O; Trp(7-CN) = N#Cc1cccc2c(C[C@H](N)C(=O)O)c[nH]c12; Trp(7-Cl) = N[C@@H](Cc1c[nH]c2c(Cl)cccc12)C(=O)O; X27 = O=C(O)c1ccc(C[C@H](N[*:1])C(=O)[*:2])cc1F; Phe(4-CONH2) = NC(=O)c1ccc(C[C@H](N)C(=O)O)cc1; Phe(4-COOH) = N[C@@H](Cc1ccc(C(=O)O)cc1)C(=O)O; 4Pal(3S-Me) = C[C@@H](c1ccncc1)[C@H](N)C(=O)O; Trp(7-aza) = N[C@@H](Cc1c[nH]c2ncccc12)C(=O)O; Pip(5R-OH) = O=C(O)[C@@H]1CC[C@@H](O)CN1; X1 = O=C([C@@H]1CC[C@H](N[*:1])C1)[*:2]; Gly(But-3-enyl) = C=CCC[C@H](N)C(=O)O; Pip(4-aza) = O=C(O)[C@@H]1CNCCN1; 4Pal = N[C@@H](Cc1ccncc1)C(=O)O; NMeE = CN[C@@H](CCC(=O)O)C(=O)O; dHyp = O=C(O)[C@H]1C[C@H](O)CN1; aThr = C[C@H](O)[C@H](N)C(=O)O; Ahp(2) = CCCCC[C@H](N)C(=O)O; αMeS = C[C@](N)(CO)C(=O)O; Carboxymethyl = O=C(O)C*; Nle = CCCC[C@H](N)C(=O)O; Sar = CNCC(=O)O

Tests used:
[1] = target: T1, TNFα-induced NF-κB signal transduction pathway (TNFR1 signaling) in THP-1 cells (Homo sapiens, UniProt P19438); assay: THP-1 Lucia NF-κB reporter cell assay, inhibition of TNFα-induced NF-κB signaling; format: cell-based; settings: THP-1 NF-κB Lucia reporter cells, 10 ng/mL TNFα, 16-18 h, secreted luciferase; read-out: THP-1 IC50
T1 sequence (P19438 30-455): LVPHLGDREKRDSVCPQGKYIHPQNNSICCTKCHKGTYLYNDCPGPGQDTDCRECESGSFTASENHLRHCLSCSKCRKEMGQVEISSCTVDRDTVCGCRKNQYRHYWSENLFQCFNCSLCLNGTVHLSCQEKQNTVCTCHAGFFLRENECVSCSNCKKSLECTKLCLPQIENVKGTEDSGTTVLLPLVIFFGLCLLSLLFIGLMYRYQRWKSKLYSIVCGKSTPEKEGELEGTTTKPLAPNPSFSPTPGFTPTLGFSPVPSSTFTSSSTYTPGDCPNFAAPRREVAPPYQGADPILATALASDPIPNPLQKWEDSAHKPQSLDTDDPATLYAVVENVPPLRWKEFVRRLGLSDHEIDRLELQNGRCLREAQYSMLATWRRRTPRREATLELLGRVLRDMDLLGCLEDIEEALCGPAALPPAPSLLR
In short: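 Read-out: secreted Lucia luciferase luminescence (QUANTI-Luc) from supernatant after 16-18 h, 37 °C, 10 ng/mL rhTNFα. Peptide pretreatment 1 h at 37 °C; 20,000 cells/well, selection antibiotics omitted. IC50 via 4-parameter logistic model against min/max controls.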

[2] = target: T2, human soluble TNFR1 (sTNFR1) (Homo sapiens, UniProt P19438); assay: Human sTNFR1-peptide displacement assay (LanthaScreen Eu TR-FRET binding assay)
T2 construct: made in house; host or cells: Sf21 (baculovirus)
T2 sequence (P19438 with tags, fused parts or gaps): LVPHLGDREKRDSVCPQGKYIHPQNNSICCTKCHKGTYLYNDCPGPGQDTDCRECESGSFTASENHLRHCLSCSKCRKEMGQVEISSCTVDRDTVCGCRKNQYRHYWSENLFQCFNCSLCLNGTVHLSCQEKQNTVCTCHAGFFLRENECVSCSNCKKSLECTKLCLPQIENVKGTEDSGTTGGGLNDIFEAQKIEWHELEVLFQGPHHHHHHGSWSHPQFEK
In short: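 Readout is the 665/615 nm TR-FRET ratio (Eu anti-His donor, streptavidin-Alexa647 acceptor), normalized to DMSO and saturating displacer, fit by Morrison-based five-parameter logistic for Kd^app. His-tagged sTNFR1 (1-211) prebound to 100 nM biotinylated peptide SEQ ID NO.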

| Compound | IC50 [1] [nM] | Kd [2] [nM] |
| --- | --- | --- |
| CCCCC[C@@H]1NC(=O)[C@@H]2CC[C@@H](C2)NC(=O)[C@H]([C@@H](C)c2c[nH]c3c(OC)cccc23)NC(=O)CN(C)C(=O)[C@H](Cc2ccc(C(N)=O)cc2)NC(=O)[C@H](Cc2ccc(C(N)=O)cc2)NC(=O)[C@](C)(CO)NC(=O)[C@H](Cc2c[nH]c3c(C#N)cccc23)NC(=O)[C@H](Cc2ccc(C(=O)O)cc2)NC(=O)[C@H](CC(N)=O)NC(=O)[C@H]2C[C@H](O)CN2C(=O)[C@H](Cc2c[nH]c3ccccc23)NC(=O)[C@H]([C@H](C)O)NC(=O)[C@H]([C@@H](C)c2ccncc2)NC1=O [SEQ ID NO. 91] (cyclo([Ahp(2)][4Pal(3S-Me)][aThr]W[dHyp]N[Phe(4-COOH)][Trp(7-CN)][αMeS][Phe(4-CONH2)][Phe(4-CONH2)][Sar][Trp(βS-Me,7-OMe)][X1])) | 0.9 | 0.24 |
| C=CCC[C@@H]1NC(=O)[C@@H]2CC[C@@H](C2)NC(=O)[C@H]([C@@H](C)c2c[nH]c3c(OC)cccc23)NC(=O)CN(C)C(=O)[C@H](Cc2ccc(C(N)=O)cc2)NC(=O)[C@H](Cc2ccc(C(N)=O)cc2)NC(=O)[C@](C)(CO)NC(=O)[C@H](Cc2c[nH]c3c(Cl)cccc23)NC(=O)[C@H](Cc2ccc(C(=O)O)cc2)NC(=O)[C@H](CC(N)=O)NC(=O)[C@H]2C[C@H](O)CN2C(=O)[C@H](Cc2c[nH]c3ccccc23)NC(=O)[C@@H]2CC[C@@H](O)CN2C(=O)[C@H](Cc2ccncc2)NC1=O [SEQ ID NO. 103] (cyclo([4Pal][Pip(5R-OH)]W[dHyp]N[Phe(4-COOH)][Trp(7-Cl)][αMeS][Phe(4-CONH2)][Phe(4-CONH2)][Sar][Trp(βS-Me,7-OMe)][X1][Gly(But-3-enyl)])) | 0.8 | 0.05 |
| CCCC[C@@H]1NC(=O)[C@@H]2CC[C@@H](C2)NC(=O)[C@H]([C@@H](C)c2c[nH]c3c(OC)cccc23)NC(=O)CN(C)C(=O)[C@H](Cc2ccc(C(=O)O)cc2F)NC(=O)[C@H](Cc2ccc(C(=O)O)cc2)NC(=O)[C@](C)(CO)NC(=O)[C@H](Cc2c[nH]c3c(Cl)cccc23)NC(=O)[C@H](Cc2ccncc2)NC(=O)[C@H](CC(N)=O)NC(=O)[C@H](CCC(=O)O)N(C)C(=O)[C@H](Cc2c[nH]c3ccccc23)NC(=O)[C@@H]2CNCCN2C(=O)[C@H](Cc2ccncc2)NC1=O [SEQ ID NO. 107] (cyclo([4Pal][Trp(7-Cl)][αMeS][Phe(4-COOH)][Phe(2-F,4-COOH)][Sar][Trp(βS-Me,7-OMe)][X1][Nle][4Pal][Pip(4-aza)]W[NMeE]N)) | 1 | 0.3 |
| CCCC[C@@H]1NC(=O)[C@@H]2CC[C@@H](C2)NC(=O)[C@H]([C@@H](C)c2c[nH]c3c(OC)cccc23)NC(=O)CN(C)C(=O)[C@H](Cc2ccc(C(=O)O)c(F)c2)NC(=O)[C@H](Cc2ccc(C(N)=O)cc2)NC(=O)[C@](C)(CO)NC(=O)[C@H](Cc2c[nH]c3c(C#N)cccc23)NC(=O)[C@H](Cc2ccc(C(=O)O)cc2)NC(=O)[C@H](CC(N)=O)NC(=O)[C@H]2C[C@H](NC(=O)C[N+](C)(C)C)CN2C(=O)[C@H](Cc2c[nH]c3ncccc23)NC(=O)[C@@H]2CC[C@@H](O)CN2C(=O)[C@H](Cc2ccncc2)NC1=O [SEQ ID NO. 113] (cyclo([4Pal][Pip(5R-OH)][Trp(7-aza)][X49]N[Phe(4-COOH)][Trp(7-CN)][αMeS][Phe(4-CONH2)][X27][Sar][Trp(βS-Me,7-OMe)][X1][Nle])) | 0.5 | 0.09 |
| CCCC[C@@H]1NC(=O)[C@@H]2CC[C@@H](C2)NC(=O)[C@H]([C@@H](C)c2c[nH]c3c(OC)cccc23)NC(=O)CN(C)C(=O)[C@H](Cc2ccc(OCC(=O)O)cc2)NC(=O)[C@H](Cc2ccc(S(N)(=O)=O)cc2)NC(=O)[C@](C)(CO)NC(=O)[C@H](Cc2c[nH]c3c(C#N)cccc23)NC(=O)[C@H](Cc2ccncc2)NC(=O)[C@H](CC(N)=O)NC(=O)[C@H]2C[C@H](OCC(=O)O)CN2C(=O)[C@H](Cc2cn(CC(=O)O)c3ncccc23)NC(=O)[C@@H]2CC[C@@H](O)CN2C(=O)[C@H](Cc2ccncc2)NC1=O [SEQ ID NO. 115] (cyclo([4Pal][Trp(7-CN)][αMeS][Phe(4-SO2NH2)]Y(Carboxymethyl)[Sar][Trp(βS-Me,7-OMe)][X1][Nle][4Pal][Pip(5R-OH)][Trp(7-aza,1-CH2COOH)][dHyp](Carboxymethyl)N)) | 1.4 | 0.19 |
